# In article PMC9454456 (Journal of Nuclear Medicine, 2022):
# Experiments:
# physchem = format: physicochemical; settings: pH 7.4
# Protocol: The layers were separated by centrifugation at 2,000 rpm (416g) for 5 min. Aliquots of 100 μL were removed from each phase and measured in a Wizard γ-counter (PerkinElmer). Calculated logD7.4 values were expressed as the mean ± SD from 3 experiments.
# NTR1 = molecular target: T1, NTR1 (Homo sapiens, UniProt P30989); experiment: Competitive receptor binding assay in NTR1-positive PC3 cells; settings: 37 kBq tracer, NT 10^-8–10^2 μM as competitive inhibitor, 60 min, 37°C, γ-counter, mean ± SD, read-out: half-maximal inhibitory concentration
# T1 construct: endogenous in cells; host or cells: PC3 human prostate adenocarcinoma cells
# T1 sequence (P30989 whole entry): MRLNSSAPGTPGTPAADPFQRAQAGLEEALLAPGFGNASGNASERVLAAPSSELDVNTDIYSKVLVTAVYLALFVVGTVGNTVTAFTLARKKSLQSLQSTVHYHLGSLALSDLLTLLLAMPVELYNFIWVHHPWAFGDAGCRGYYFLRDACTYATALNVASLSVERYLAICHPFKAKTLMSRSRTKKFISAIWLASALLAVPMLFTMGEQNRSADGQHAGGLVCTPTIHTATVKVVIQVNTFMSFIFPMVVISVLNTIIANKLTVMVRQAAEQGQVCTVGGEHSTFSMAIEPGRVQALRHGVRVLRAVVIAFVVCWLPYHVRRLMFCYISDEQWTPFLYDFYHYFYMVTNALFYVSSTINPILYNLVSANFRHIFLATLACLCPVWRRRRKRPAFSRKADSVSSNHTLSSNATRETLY
# Protocol: After incubation for 60 min at 37°C, the medium of each well was removed and the cells were washed twice with PBS. The removed medium and washing PBS were collected to represent the amount of free radioligand. The adherent cells were lysed with NaOH (0.1 M, 200 μL) and harvested after being washed twice by PBS. Finally, the cell-bound radioactivity (3 × 10^5 cells/mL) and the amount of free radioligand were measured in a γ-counter. The half-maximal inhibitory concentration was calculated using GraphPad Prism software. […] The radioactivity of adherent cells (3 × 10^5 cells/mL) was then measured after they were extracted with NaOH (0.1 M, 200 μL) and washed twice with PBS.
# in vivo [1] = experiment: in vivo; set-up: species or system mice; settings: mouse, iv, 3.4 MBq, total radioactivity, Biodistribution
# Protocol: Blood and major organs were harvested immediately, weighed, and counted using a γ-counter. The radioactivity of each sample was calculated as the percentage of injected dose per gram of tissue (%ID/g) and corrected for radioactive decay.
# PC3-xenografted mice [2] = settings: mouse, in vivo
# Protocol: (§1) Images were reconstructed using 3-dimensional ordered-subset expectation maximization with attenuation correction. Regions of interest were drawn over the tumors and main organs, and average signal levels in the regions were measured using an Inveon Research Workplace workstation.
# in vivo [3] = settings: mouse, iv, 7.4 MBq, total radioactivity
# Protocol: as §1
# PC3-xenografted mice [4] = experiment: Small-animal PET/CT imaging, PC3 xenografts; settings: PC3 xenograft, 7.4 MBq i.v., 1 h after injection, mean ± SD
# Protocol: as §1
# LNCap-xenografted mice = experiment: Small-animal PET/CT imaging, LNCap xenografts; settings: LNCap xenograft, 7.4 MBq i.v., 1 h after injection, mean ± SD
# Protocol: as §1
smiles,measurement,setting,value
"CC(=O)NC(CCCCNC(=O)CN1CCN(CC(=O)O)CCN(CC(=O)O)CCN(CC(=O)O)CC1)C(=O)N1CCCC1C(=O)N(C)C(CCCNC(=N)N)C(=O)NC(CCCNC(=N)N)C(=O)N1CCCC1C(=O)NC(Cc1ccc(O)cc1)C(=O)NC(C(=O)NC(CC(C)C)C(=O)O)C(C)(C)C (centres unmarked) [^68Ga-DOTA-NT-20.3, metal not drawn]",logD,physchem,-3.68 ± 0.14
same,IC50,NTR1,7.59 ± 0.41 nM
same,tissue uptake at 5 min,in vivo [1]; Blood,8.11 ± 1.54 %ID/g
same,tissue uptake at 0.25 h,in vivo [1]; Blood,4.15 ± 0.59 %ID/g
same,tissue uptake at 0.5 h,in vivo [1]; Blood,2.56 ± 0.23 %ID/g
same,tissue uptake at 1 h,in vivo [1]; Blood,1.12 ± 0.22 %ID/g
same,tissue uptake at 2 h,in vivo [1]; Blood,0.43 ± 0.08 %ID/g
same,tissue uptake at 5 min,in vivo [1]; Bone,2.27 ± 0.29 %ID/g
same,tissue uptake at 0.25 h,in vivo [1]; Bone,2.35 ± 0.52 %ID/g
same,tissue uptake at 0.5 h,in vivo [1]; Bone,1.27 ± 0.08 %ID/g
same,tissue uptake at 1 h,in vivo [1]; Bone,0.86 ± 0.17 %ID/g
same,tissue uptake at 2 h,in vivo [1]; Bone,0.53 ± 0.17 %ID/g
same,tissue uptake at 5 min,in vivo [1]; Brain,1.91 ± 0.39 %ID/g
same,tissue uptake at 0.25 h,in vivo [1]; Brain,1.35 ± 0.15 %ID/g
same,tissue uptake at 0.5 h,in vivo [1]; Brain,0.88 ± 0.1 %ID/g
same,tissue uptake at 1 h,in vivo [1]; Brain,0.6 ± 0.05 %ID/g
same,tissue uptake at 2 h,in vivo [1]; Brain,0.33 ± 0.1 %ID/g
same,tissue uptake at 5 min,in vivo [1]; Fat,1.42 ± 0.23 %ID/g
same,tissue uptake at 0.25 h,in vivo [1]; Fat,1.11 ± 0.23 %ID/g
same,tissue uptake at 0.5 h,in vivo [1]; Fat,0.62 ± 0.11 %ID/g
same,tissue uptake at 1 h,in vivo [1]; Fat,0.32 ± 0.03 %ID/g
same,tissue uptake at 2 h,in vivo [1]; Fat,0.32 ± 0.07 %ID/g
same,tissue uptake at 5 min,in vivo [1]; Heart,7.7 ± 0.9 %ID/g
same,tissue uptake at 0.25 h,in vivo [1]; Heart,3.88 ± 0.18 %ID/g
same,tissue uptake at 0.5 h,in vivo [1]; Heart,2.78 ± 0.36 %ID/g
same,tissue uptake at 1 h,in vivo [1]; Heart,1.57 ± 0.18 %ID/g
same,tissue uptake at 2 h,in vivo [1]; Heart,0.58 ± 0.11 %ID/g
same,tissue uptake at 5 min,in vivo [1]; Intestine,3.28 ± 0.3 %ID/g
same,tissue uptake at 0.25 h,in vivo [1]; Intestine,2.31 ± 0.92 %ID/g
same,tissue uptake at 0.5 h,in vivo [1]; Intestine,1.47 ± 0.26 %ID/g
same,tissue uptake at 1 h,in vivo [1]; Intestine,0.77 ± 0.24 %ID/g
same,tissue uptake at 2 h,in vivo [1]; Intestine,0.38 ± 0.04 %ID/g
same,tissue uptake at 5 min,in vivo [1]; Kidney,18.4 ± 1.27 %ID/g
same,tissue uptake at 0.25 h,in vivo [1]; Kidney,21.2 ± 1.95 %ID/g
same,tissue uptake at 0.5 h,in vivo [1]; Kidney,23.1 ± 1.94 %ID/g
same,tissue uptake at 1 h,in vivo [1]; Kidney,24.6 ± 0.98 %ID/g
same,tissue uptake at 2 h,in vivo [1]; Kidney,26.1 ± 0.79 %ID/g
same,tissue uptake at 5 min,in vivo [1]; Liver,5.46 ± 1.01 %ID/g
same,tissue uptake at 0.25 h,in vivo [1]; Liver,3.17 ± 0.45 %ID/g
same,tissue uptake at 0.5 h,in vivo [1]; Liver,2.02 ± 0.48 %ID/g
same,tissue uptake at 1 h,in vivo [1]; Liver,1.44 ± 0.2 %ID/g
same,tissue uptake at 2 h,in vivo [1]; Liver,0.86 ± 0.49 %ID/g
same,tissue uptake at 5 min,in vivo [1]; Lung,5.18 ± 0.16 %ID/g
same,tissue uptake at 0.25 h,in vivo [1]; Lung,3.28 ± 0.62 %ID/g
same,tissue uptake at 0.5 h,in vivo [1]; Lung,1.91 ± 0.15 %ID/g
same,tissue uptake at 1 h,in vivo [1]; Lung,1.2 ± 0.23 %ID/g
same,tissue uptake at 2 h,in vivo [1]; Lung,0.75 ± 0.15 %ID/g
same,tissue uptake at 5 min,in vivo [1]; Muscle,1.93 ± 0.65 %ID/g
same,tissue uptake at 0.25 h,in vivo [1]; Muscle,1.44 ± 0.17 %ID/g
same,tissue uptake at 0.5 h,in vivo [1]; Muscle,0.96 ± 0.08 %ID/g
same,tissue uptake at 1 h,in vivo [1]; Muscle,0.51 ± 0.02 %ID/g
same,tissue uptake at 2 h,in vivo [1]; Muscle,0.32 ± 0.04 %ID/g
same,tissue uptake at 5 min,in vivo [1]; Pancreas,2.88 ± 0.61 %ID/g
same,tissue uptake at 0.25 h,in vivo [1]; Pancreas,2.03 ± 0.26 %ID/g
same,tissue uptake at 0.5 h,in vivo [1]; Pancreas,1.59 ± 0.6 %ID/g
same,tissue uptake at 1 h,in vivo [1]; Pancreas,1.05 ± 0.07 %ID/g
same,tissue uptake at 2 h,in vivo [1]; Pancreas,0.36 ± 0.04 %ID/g
same,tissue uptake at 5 min,in vivo [1]; Spleen,3.97 ± 0.39 %ID/g
same,tissue uptake at 0.25 h,in vivo [1]; Spleen,2.81 ± 0.47 %ID/g
same,tissue uptake at 0.5 h,in vivo [1]; Spleen,1.85 ± 0.43 %ID/g
same,tissue uptake at 1 h,in vivo [1]; Spleen,1.06 ± 0.27 %ID/g
same,tissue uptake at 2 h,in vivo [1]; Spleen,0.41 ± 0.04 %ID/g
same,tissue uptake at 5 min,in vivo [1]; Stomach,3.56 ± 0.31 %ID/g
same,tissue uptake at 0.25 h,in vivo [1]; Stomach,2.49 ± 0.35 %ID/g
same,tissue uptake at 0.5 h,in vivo [1]; Stomach,1.75 ± 0.38 %ID/g
same,tissue uptake at 1 h,in vivo [1]; Stomach,0.91 ± 0.18 %ID/g
same,tissue uptake at 5 min,in vivo [1]; Testis,1.62 ± 0.11 %ID/g
same,tissue uptake at 0.25 h,in vivo [1]; Testis,1.31 ± 0.05 %ID/g
same,tissue uptake at 0.5 h,in vivo [1]; Testis,0.8 ± 0.06 %ID/g
same,tissue uptake at 1 h,in vivo [1]; Testis,0.42 ± 0.04 %ID/g
same,tissue uptake at 2 h,in vivo [1]; Testis,0.31 ± 0.1 %ID/g
same,tissue uptake at 5 min,in vivo [1]; Tumor,2.81 ± 0.39 %ID/g
same,tissue uptake at 0.25 h,in vivo [1]; Tumor,3.93 ± 0.43 %ID/g
same,tissue uptake at 0.5 h,in vivo [1]; Tumor,5.7 ± 0.8 %ID/g
same,tissue uptake at 1 h,in vivo [1]; Tumor,6.26 ± 0.41 %ID/g
same,tissue uptake at 2 h,in vivo [1]; Tumor,3.74 ± 0.56 %ID/g
same,tumor retention time,PC3-xenografted mice [2],up to 4 h
same,tissue uptake at 0.5 h,in vivo [3],4.53 ± 1.26 %ID/g
O=C([O-])CN(CCN(CC(=O)[O-])Cc1cc(CCC(=O)NCCCCCC(=O)NCCCC[C@H](NC(=O)N[C@@H](CCC(=O)O)C(=O)O)C(=O)O)ccc1[O-])Cc1cc(CCC(=O)O)ccc1[O-].[68Ga+3].[OH3+] [^68Ga-PSMA-11],tumor uptake (PET region of interest),PC3-xenografted mice [4],0.53 ± 0.05 %ID/g
same,tumor uptake (PET region of interest),LNCap-xenografted mice,8.60 ± 2.11 %ID/g
